Experimental data published in patent US20080255186A1, “Pyrazolo[3,4-B]Pyridine Compound, and Its Use as a Pde4 Inhibitor” (priority 2005, published 2008).

Biological target: T1, PDE4B (human recombinant) (Homo sapiens, UniProt Q07343)
T1 construct: made in house; host or cells: Saccharomyces cerevisiae strain GL62 (PDE-deficient yeast)
Experiment: PDE4B inhibition, IMAP Fluorescence Polarisation (FP) assay
Type: biochemical
Conditions: mean of n = 3 readings; accurate to about ±0.5 log unit; read-out: PDE4B pIC50 (± about 0.5) (FP assay), Mean pIC50 value (converted)
Excerpt: Human recombinant PDE4B, in particular the 2B splice variant thereof (HSPDE4B2B), is disclosed in WO 94/20079 and also M. M. McLaughlin et al., “A low Km, rolipram-sensitive, cAMP-specific phosphodiesterase from human brain: cloning and expression of cDNA, biochemical characterisation of recombinant protein, and tissue distribution of mRNA”, J. Biol. Chem., 1993, 268, 6470-6476. For example, in Example 1 of WO 94/20079, human recombinant PDE4B is described as being expressed in the PDE-deficient yeast Saccharomyces cerevisiae strain GL62, e.g. after induction by addition of 150 uM CuSO4, and 100,000×g supernatant fractions of yeast cell lysates are described for use in the harvesting of PDE4B enzyme.
The ability of compounds to inhibit catalytic activity at PDE4B (human recombinant) or PDE4D (human recombinant) can optionally be determined by IMAP Fluorescence Polarisation (FP) assay (IMAP Explorer kit, available from Molecular Devices Corporation, Sunnydale, Calif., USA; Molecular Devices code: R8062) in 384-well format.
The IMAP FP assay is able to measure PDE activity in an homogenous, non-radioactive assay format. […] Binding of Fl-AMP product to the beads (coated with the immobilised trivalent cations) slows the rotation of the bound Fl-AMP and leads to an increase in the fluorescence polarisation ratio of parallel to perpendicular light. […]

T1 sequence (Q07343 1-564 isoform Q07343-2): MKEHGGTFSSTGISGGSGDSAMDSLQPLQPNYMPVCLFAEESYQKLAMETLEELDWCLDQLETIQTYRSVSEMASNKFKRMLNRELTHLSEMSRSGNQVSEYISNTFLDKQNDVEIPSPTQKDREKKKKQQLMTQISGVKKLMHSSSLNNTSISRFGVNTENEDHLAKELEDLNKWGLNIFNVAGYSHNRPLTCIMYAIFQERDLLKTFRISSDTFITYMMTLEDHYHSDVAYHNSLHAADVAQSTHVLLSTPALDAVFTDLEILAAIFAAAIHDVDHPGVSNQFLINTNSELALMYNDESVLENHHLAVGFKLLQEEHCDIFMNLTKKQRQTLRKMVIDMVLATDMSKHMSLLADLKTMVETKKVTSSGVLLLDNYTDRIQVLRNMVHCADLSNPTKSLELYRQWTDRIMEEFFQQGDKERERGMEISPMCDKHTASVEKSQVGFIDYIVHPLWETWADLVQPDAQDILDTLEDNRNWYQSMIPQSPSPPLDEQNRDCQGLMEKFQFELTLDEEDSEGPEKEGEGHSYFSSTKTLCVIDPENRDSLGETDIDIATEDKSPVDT

## CCc1nc2c(cnn2CC)c(NC2CCOCC2)c1CNC(=O)c1cc(C)no1 [Example 1, N-{[1,6-diethyl-4-(tetrahydro-2H-pyran-4-ylamino)-1H-pyrazolo[3,4-b]pyridin-5-yl]methyl}-3-methyl-5-isoxazolecarboxamide]
  IC50: ~0.158 nM
